Data published in patent US20260373497A1, “MOLECULAR MACHINES STIMULATE INTERCELLULAR CALCIUM WAVES AND CAUSE MUSCLE CONTRACTION” (William Marsh Rice University, priority 2022, published 2026).
“Also recorded” adds a separate entry of the source.

System: HEK293 cells
Assay: MM-induced intracellular calcium responses (Fluo-4) after 400 nm stimulation
Assay type: cell-based
Protocol: To investigate cellular responses to the actuation of MM, live-cell calcium tracking were employed. HEK293 cells were treated with the fluorescent intracellular calcium indicator Fluo-4 and loaded with MM. The structures of the MM employed in this study are shown in FIG. 1B, and the calcium responses of cells treated with fast-rotating MM 1 are shown in FIG. 1C. […] In the presence of the vehicle only, no calcium responses were evoked by the same laser treatment (FIG. 2).
Cell Culture and Preparation of Cells for Microscopy: HEK293 cells were chosen as the principal model system due to their prevalence in electrophysiological interrogation. […] HEK293 cells, HeLa cells, and N2A cells were cultured in DMEM (10% FBS, 1% penicillin/streptomycin) and passaged at <90% confluence. To grow cardiomyocytes, a dissColved rat heart (TransnetYX©) was triturated, centrifuged, and resuspended in cardiomyocyte growth medium (TransnetYX© catalog #SKU-NBCG) and seeded at a concentration of 60,000 cells cm^−2. Growth substrates were pre-treated with 1% gelatin solution for 3 h, then washed with PBS. Cardiomyocytes were allowed to grow for 4 days, after which the growth medium was exchanged for cardiomyocyte maintenance medium (TransnetYX© catalog #SKU-NBCM). Experiments were conducted from day 4 to day 6.
Imaging was conducted in imaging extracellular buffer (iECB; 119 mM NaCl, 5 mM KCl, 10 mM HEPES, 2 mM CaCl2, 1 mM MgCl2 (pH 7.2); 320 mOsm). Imaging in calcium-free medium was conducted in phosphate-buffered saline. Cells were prepared for imaging by seeding a 35 mm Ibidi imaging dish with ~50,000 cells in 1 mL of DMEM, and grown at 37 °C, 5% CO2 for 2 days. Prior to imaging, cells were incubated with dyes and/or molecules resuspended in complete growth medium at the appropriate concentration (MM 1 (8 μM), MM 2 (8 μM), MM 3 (24 μM), MM 4 (8 μM), Fluo-4 (2 μM)). MM and Fluo-4 were loaded into cells for 45 min. Cells treated with thapsigargin were exposed for 30 min after MM and Fluo-4 loading. Cells treated with organelle-targeting dyes were exposed for 5 min after MM loading. Ruthenium red and Gd^3+ were included in the imaging medium during stimulation and were associated with cells for 10 min prior to imaging. At the end of incubation, this medium was replaced with the iECB. Unless otherwise specified, all experiments were replicated in triplicate.
In Vitro Imaging and Stimulation: Cells were loaded in a Nikon A1-Rsi confocal system mounted on a widefield Ti-E fluorescence microscope. Imaging was conducted using a 60× water immersion objective (NA of 1.27, 0.17 mm working distance). Green fluorophores (Fluo-4, MitoTracker Green) were excited using a 488 nm photodiode laser. Red fluorophores (ER-Tracker-Red, PI) were excited using a 561 nm photodiode laser. Deep red fluorophores (cellMask plasma membrane stain) were excited using a 630 nm photodiode laser. Laser stimulation for in vitro experiments was performed with a 400 nm photodiode laser (Coherent OBIS™ LX SF) operating in a fluorescence-recovery-after-photobleaching (FRAP) experiment mode, delivering up to 6.4×10^2 W cm^−2 at sample level. Unless otherwise specified, all experiments were conducted using a stimulus irradiance of 3.2×10^2 W cm^−2. Cardiomyocyte experiments were conducted using a stimulus irradiance of 5.1×10^2 W cm^−2. Power was calibrated using a Thor Labs S130C laser power meter. Stimulation was targeted to a circular area of diameter 5 μm in a 250 ms pulse, during which the laser rasters across the entire region of interest. […] Fluo-4 fluorescence was collected for 30 s before and 2 min after stimulation. Images were collected using a Galvano scanner operating at 0.94 fps. In selected experiments, images were also collected using a resonant scanner operating at 7.7 fps.
Data Analysis—In Vitro: Data were analyzed using custom-written Python scripts. Fluorescence traces of calcium indicator Fluo-4 from cells were imported and processed via the Pandas library. […]

[1] = 8 μM MM, 400 nm, 3.2×10^2 W cm^−2, 250 ms

Structure (SMILES)	Intracellular calcium response (Fluo-4) [1]	Decay kinetics of calcium response (8 μM, 400 nm light, 250 ms)	Time to peak of calcium transient after stimulation (8 μM, 400 nm light, 250 ms) [s]	Repeatability of calcium responses (3.2×10^2 W cm^−2, 250 ms, multiple stimulations)	Light power dependence of calcium response (250 ms pulse, 5 μm diameter)	Propagation of calcium response to adjacent cells (MM 1, 400 nm light)	Signal amplitude compared with other MM (MM 1 vs MM 2)	Intracellular calcium response (Fluo-4) (MM 3 at 24 μM, 6.4×10^2 W cm^−2)
CC1Cc2ccc3ccccc3c2C1=C1c2ccccc2Sc2cc(NCCN(C)C)ccc21 (stereo not drawn) [MM 1]	increased Fluo-4 fluorescence in the targeted cell; also recorded: elicited rapid increases in intracellular calcium; also recorded: elicited the strongest signaling responses in vitro	decayed over the next minute	10 to 20	repeatable	higher response amplitude at higher irradiance	Calcium responses were observed to propagate to adjacent cells	reached a higher amplitude than those elicited by MM 2	–
CC1Cc2cc(NCCN(C)C)c3ccccc3c2C1=C1c2ccccc2-c2ccccc21 (stereo not drawn) [MM 3]	–	–	–	–	–	–	–	elicited no change in calcium activity upon irradiation; also recorded: did not elicit any noticeable responses in vitro
CN(C)CCNc1ccc2c(c1)Sc1ccccc1C2=C1CCc2ccc3ccccc3c21 [MM 4]	elicited only small changes in calcium concentration; also recorded: elicited inconsistent and weak responses	–	–	–	–	–	–	–
